Results from PubChem BioAssay (NCI).
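The compound was tested at five concentrations on cells cultured in 96-well plates, with a 48-hour exposure period. TGI: concentration producing complete growth inhibition.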 Where a SMILES comes first, the peptide text is derived from it. The star is where a group is joined. CH2Cl = ClC*

Tests used:
Test in all cases: inhibition of tumour cell growth, NCI panel, 48 h
[1] = tested on: 786-0 renal
[2] = tested on: A498 renal
[3] = tested on: A549 NSCLC
[4] = tested on: ACHN renal
[5] = tested on: BT-549 breast
[6] = tested on: CAKI-1 renal
[7] = tested on: CCRF-CEM leukemia
[8] = tested on: COLO 205 colon
[9] = tested on: DU-145 prostate
[10] = tested on: EKVX NSCLC
[11] = tested on: HCC-2998 colon
[12] = tested on: HCT-116 colon
[13] = tested on: HCT-15 colon
[14] = tested on: HL-60(TB) leukemia
[15] = tested on: HOP-62 NSCLC
[16] = tested on: HOP-92 NSCLC
[17] = tested on: HS 578T breast
[18] = tested on: HT29 colon
[19] = tested on: IGROV1 ovarian
[20] = tested on: K-562 leukemia
[21] = tested on: KM12 colon
[22] = tested on: LOX IMVI melanoma
[23] = tested on: M14 melanoma
[24] = tested on: MALME-3M melanoma
[25] = tested on: MCF7 breast
[26] = tested on: MDA-MB-231 breast
[27] = tested on: MDA-MB-435
[28] = tested on: MDA-N
[29] = tested on: MOLT-4 leukemia
[30] = tested on: NCI-H226 lung
[31] = tested on: NCI-H23 lung
[32] = tested on: NCI-H460 lung
[33] = tested on: NCI-H522 lung
[34] = tested on: NCI/ADR-RES ovarian
[35] = tested on: OVCAR-3 ovarian
[36] = tested on: OVCAR-4 ovarian
[37] = tested on: OVCAR-5 ovarian
[38] = tested on: OVCAR-8 ovarian
[39] = tested on: PC-3 prostate
[40] = tested on: RPMI-8226 leukemia
[41] = tested on: RXF 393 renal
[42] = tested on: SF-268 CNS
[43] = tested on: SF-295 CNS
[44] = tested on: SF-539 CNS
[45] = tested on: SK-MEL-2 melanoma
[46] = tested on: SK-MEL-28 melanoma
[47] = tested on: SK-MEL-5 melanoma
[48] = tested on: SK-OV-3 ovarian
[49] = tested on: SN12C renal
[50] = tested on: SNB-19 CNS
[51] = tested on: SNB-75 CNS
[52] = tested on: SR leukemia
[53] = tested on: SW-620 colon
[54] = tested on: T-47D breast
[55] = tested on: TK-10 renal
[56] = tested on: U251 CNS
[57] = tested on: UACC-257 melanoma
[58] = tested on: UACC-62 melanoma
[59] = tested on: UO-31 renal

For CC(=O)NC(CC(C)C)C(=O)NC(Cc1ccccc1)C(=O)CCl (stereo not drawn) (Ac-Leu-Phe-CH2Cl; configuration not given here), which TGI [1] is on record?
The TGI was 17 µM.

And the TGI [2]?
The TGI was 33.8 µM.

What about the TGI [3] of the same molecule?
Its TGI is 41.6 µM.

And the TGI [4]?
Its TGI is 23.9 µM.

What about the TGI [5] of the same molecule?
Its TGI is 28.4 µM.

And the TGI [6]?
Its TGI is 32.1 µM.

What about the TGI [7] of the same molecule?
Its TGI is 3.94 µM.

And the TGI [8]?
The TGI was over 51.1 µM.

And the TGI [9]?
The TGI was 17 µM.

What about the TGI [10] of the same molecule?
The TGI was 38.4 µM.

What about the TGI [11] of the same molecule?
Its TGI is 30.4 µM.

And the TGI [12]?
The TGI was 19.2 µM.

What about the TGI [13] of the same molecule?
The TGI was 13.2 µM.

What about the TGI [14] of the same molecule?
Its TGI is over 21.3 µM.

What about the TGI [15] of the same molecule?
The TGI was 33.2 µM.

What about the TGI [16] of the same molecule?
Its TGI is 16.5 µM.

What about the TGI [17] of the same molecule?
The TGI was 36.4 µM.

What about the TGI [18] of the same molecule?
Its TGI is 34.6 µM.

What about the TGI [19] of the same molecule?
The TGI was 31.6 µM.

What about the TGI [20] of the same molecule?
The TGI was 10.7 µM.

What about the TGI [21] of the same molecule?
The TGI was 36 µM.

And the TGI [22]?
The TGI was 10.6 µM.

What about the TGI [23] of the same molecule?
The TGI was 21.1 µM.

What about the TGI [24] of the same molecule?
Its TGI is 18.4 µM.

What about the TGI [25] of the same molecule?
The TGI was 22.8 µM.

And the TGI [26]?
The TGI was 39.3 µM.

What about the TGI [27] of the same molecule?
The TGI was 28 µM.

What about the TGI [28] of the same molecule?
Its TGI is 32.9 µM.

And the TGI [29]?
The TGI was 4.53 µM.

And the TGI [30]?
Its TGI is 39.1 µM.

And the TGI [31]?
The TGI was 30.3 µM.

And the TGI [32]?
The TGI was 43.3 µM.

What about the TGI [33] of the same molecule?
Its TGI is 7.43 µM.

And the TGI [34]?
The TGI was 50.1 µM.

What about the TGI [35] of the same molecule?
The TGI was 28.3 µM.

And the TGI [36]?
Its TGI is 43.6 µM.

What about the TGI [37] of the same molecule?
The TGI was 32.4 µM.

And the TGI [38]?
Its TGI is 19.6 µM.

And the TGI [39]?
Its TGI is 30.7 µM.

And the TGI [40]?
Its TGI is over 25 µM.

And the TGI [41]?
Its TGI is 5.69 µM.

And the TGI [42]?
The TGI was 50.4 µM.

And the TGI [43]?
Its TGI is 33.9 µM.

And the TGI [44]?
The TGI was 34.5 µM.

And the TGI [45]?
The TGI was 27.4 µM.

And the TGI [46]?
Its TGI is 23.2 µM.

And the TGI [47]?
Its TGI is 22.5 µM.

What about the TGI [48] of the same molecule?
Its TGI is 32.3 µM.

And the TGI [49]?
Its TGI is 27 µM.

And the TGI [50]?
The TGI was 37.7 µM.

What about the TGI [51] of the same molecule?
The TGI was 28.1 µM.

What about the TGI [52] of the same molecule?
Its TGI is over 21.8 µM.

What about the TGI [53] of the same molecule?
Its TGI is 9.17 µM.

What about the TGI [54] of the same molecule?
The TGI was over 59.7 µM.

And the TGI [55]?
The TGI was 24.1 µM.

What about the TGI [56] of the same molecule?
The TGI was 30.5 µM.

And the TGI [57]?
The TGI was 22.4 µM.

What about the TGI [58] of the same molecule?
The TGI was 19 µM.

And the TGI [59]?
Its TGI is 28.4 µM.

What does the source list for Cc1noc(NS(=O)(=O)c2ccc(NC(=O)c3ccc4nc5ccccc5c(Nc5ccc(S(=O)(=O)Nc6onc(C)c6C)cc5)c4c3)cc2)c1C?
TGI [1]: > 100 µM; TGI [2]: > 100 µM; TGI [3]: > 100 µM; TGI [4]: > 100 µM; TGI [5]: 88.8 µM; TGI [6]: > 100 µM; TGI [7]: > 100 µM; TGI [8]: > 100 µM; TGI [9]: > 100 µM; TGI [10]: > 100 µM; TGI [11]: > 100 µM; TGI [12]: > 100 µM; TGI [13]: > 100 µM; TGI [14]: > 100 µM; TGI [15]: > 100 µM; TGI [16]: > 100 µM; TGI [17]: > 100 µM; TGI [18]: > 100 µM; TGI [19]: > 100 µM; TGI [20]: 60.7 µM; TGI [21]: > 100 µM; TGI [22]: 61.3 µM; TGI [23]: > 100 µM; TGI [24]: > 100 µM; TGI [25]: > 100 µM; TGI [26]: 80.8 µM; TGI [27]: > 100 µM; TGI [28]: > 100 µM; TGI [29]: > 100 µM; TGI [30]: > 100 µM; TGI [31]: > 100 µM; TGI [32]: > 100 µM; TGI [33]: > 100 µM; TGI [34]: > 100 µM; TGI [35]: > 100 µM; TGI [36]: > 100 µM; TGI [37]: > 100 µM; TGI [38]: > 100 µM; TGI [39]: > 100 µM; TGI [40]: > 100 µM; TGI [41]: > 100 µM; TGI [42]: > 100 µM; TGI [43]: > 100 µM; TGI [44]: > 100 µM; TGI [45]: > 100 µM; TGI [46]: > 100 µM; TGI [47]: > 100 µM; TGI [48]: > 100 µM; TGI [49]: > 100 µM; TGI [50]: > 100 µM; TGI [51]: > 100 µM; TGI [52]: > 100 µM; TGI [53]: > 100 µM; TGI [54]: > 100 µM; TGI [55]: > 100 µM; TGI [56]: > 100 µM; TGI [57]: > 100 µM; TGI [58]: > 100 µM; TGI [59]: > 100 µM
